Measurements published in US20050119289A1 (priority 2002, published 2005).
In brackets after ≈: the same amount, converted by molar mass. Read-outs that look alike come from different tables or passages of the source.

How the values were obtained:
[1] = molecular target: T1, rA1 adenosine receptor (Rattus norvegicus, UniProt P25099); experiment: Binding affinity at rA1 adenosine receptors
T1 sequence (P25099 1-326): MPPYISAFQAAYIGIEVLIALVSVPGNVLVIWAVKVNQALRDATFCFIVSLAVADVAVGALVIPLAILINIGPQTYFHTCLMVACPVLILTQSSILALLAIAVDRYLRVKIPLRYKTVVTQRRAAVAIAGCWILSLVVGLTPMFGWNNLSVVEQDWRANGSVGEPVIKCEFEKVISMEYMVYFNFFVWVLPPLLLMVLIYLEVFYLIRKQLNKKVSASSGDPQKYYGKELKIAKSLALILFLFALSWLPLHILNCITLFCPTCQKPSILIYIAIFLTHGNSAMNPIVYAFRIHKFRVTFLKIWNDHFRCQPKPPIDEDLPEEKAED

[2] = molecular target: rA2A adenosine receptor (Rattus norvegicus, UniProt P30543); experiment: Binding affinity at rA2A adenosine receptors
rA2A adenosine receptor, sequence (P30543 whole entry): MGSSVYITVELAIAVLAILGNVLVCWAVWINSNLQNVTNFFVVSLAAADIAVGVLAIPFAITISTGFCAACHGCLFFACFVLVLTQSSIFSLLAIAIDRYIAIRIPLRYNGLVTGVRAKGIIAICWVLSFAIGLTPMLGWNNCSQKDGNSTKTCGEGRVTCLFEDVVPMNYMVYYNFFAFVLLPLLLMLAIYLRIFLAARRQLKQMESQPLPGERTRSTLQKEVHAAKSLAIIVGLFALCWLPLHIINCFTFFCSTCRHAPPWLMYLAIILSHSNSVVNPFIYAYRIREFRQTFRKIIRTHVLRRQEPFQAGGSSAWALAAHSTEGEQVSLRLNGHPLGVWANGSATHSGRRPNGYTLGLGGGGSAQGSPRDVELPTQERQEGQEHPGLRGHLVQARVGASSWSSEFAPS

[3] = tested on: human colon carcinoma HT29 cell line; experiment: MTT growth inhibitory assay, HT29; assay type: cell-based; settings: Homo sapiens, HT-29, HT29 cells, read-out: IC50 of anti-neoplastic agent used jointly with A3 antagonist
Description: (§1) The cells are sub-cultured twice a week.

[4] = tested on: human pancreatic cancer Panc-1 cell line; experiment: MTT growth inhibitory assay, Panc-1; assay type: cell-based; settings: PANC-1, Panc-1 cells, read-out: IC50 of anti-neoplastic agent used jointly with A3 antagonist
Protocol: (§5) For chemotherapeutic enhancement testing, the human melanoma A375, human lung carcinoma SKMES, colon carcinoma HT29, and pancreatic cancer Panc-1 cell lines were originally obtained from the ATCC (American Type Culture Collection) and have been maintained at PRC. […] The cells are cultured in a T25 Falcon Tissue Culture flask in a humidified incubator at 37° C. with 5% CO2-95% air. The cells are sub-cultured twice a week. The doubling times of A375, SKMES, HT29, and Panc-1 cultures are approximately 22, 46, 48, and 60 hr, respectively.
(§6) One of the growth inhibitory assays is the MTT assay. Cells (1000-1500 cells/well) are seeded in a 96-well micro culture plate in a total volume of 100 μl/well. After overnight incubation in a humidified incubator at 37° C. with 5% CO2-95% air, chemotherapeutic drug solutions diluted with culture medium at various concentrations are added in the amount of 100 μl to each well. The plates are placed in a humidified incubator at 37° C. with 5% CO2-95% air for 7-10 days. The plates are then centrifuged briefly and 100 μl of the growth medium is removed. Cell cultures are incubated with 50 μl of MTT [3-(4,5-dimethylthiazol-2-yl)-2,5-diphenyl-tetrazolium bromide] reagent (1 mg/ml in Dulbecco's phosphate-buffered saline) for 4 hr at 37° C. The resultant purple formazan precipitate is solubilized with 200 μl of 0.04 N HCl in isopropanol. Absorbance is measured at a wavelength of 595 nm and at a reference wavelength of 655 nm using a Bio-Rad Model 3550 Microplate Reader. Preferably, all tests are run in duplicate for each dose level.
(§7) The EZED50 computer program estimates the concentration of agent that inhibits cell growth by 50% as compared to the control cells. This is termed the IC50 and is determined by curve fitting test data using the following four logistic equation.
(§8) Inhibitory assay testing is also used to determine enhanced therapeutic effects from combining A3 receptor antagonists with other tumor inhibiting agents. The inhibitory cell growth assays are run with and without selected concentrations of A3 receptor antagonists. An enhanced therapeutic effect is present when the IC50 of the tumor inhibiting agent is lower with the A3 receptor antagonist.
(§9) Quantitatively, the enhancement factor (EF) is calculated by dividing the IC50 value of the tumor inhibiting agent for a tumor cell line by the IC50 value of the agent with A3 receptor antagonist for the same cell line: [formula]

[5] = tested on: human lung carcinoma SKMES cell line; experiment: MTT growth inhibitory assay, SKMES; assay type: cell-based; settings: SKMES cells, read-out: IC50 of anti-neoplastic agent used jointly with A3 antagonist
Description: as §1

[6] = tested on: human melanoma A375 cell line
Protocol: as §5, §6, §7, §8, §9

[7] = docetaxel administered at 100 mg/m^2; cited from earlier work
[8] = tested on: human melanoma A375 cell line; experiment: MTT growth inhibitory assay, A375
Protocol: as §5, §6, §7, §8, §9

[9] = tested on: A375 cells; experiment: Flow cytometry analysis of G2/M accumulation and sub-G1 apoptosis, A375; assay type: cell-based, human; settings: for EC50: Homo sapiens, A-375
Protocol: (§2) A375 and NCTC2544 adherent cells were trypsinized, mixed with floating cells, washed with PBS and permeabilised in 70% (vol/vol) ethanol/PBS solution at 4° C. for at least 24 hours. Jurkat, HeL023 and PBMC cells were centrifuged for 10 minutes at 1000×g. The cell pellet was then resuspended and permeabilised in 70% (vol/vol) ethanol/PBS solution at 4° C. for at least 24 hours. The cells were washed with PBS and the DNA was stained with a PBS solution, containing 20 μg/ml of propidium iodide and 100 μg/ml of RNAse, at room temperature for 30 minutes. Cells were analysed by FACScan (Becton-Dickinson) and the content of DNA was evaluated by the Cell-LISYS program (Becton-Dickinson). Cell distribution among cell cycle phases and apoptotic cells was evaluated as previously described (Secchiero et al., 2001). Briefly, the cell cycle distribution is shown as the percentage of cells containing 2n (G1 phase), 4n (G2 and M phases), 4n>x>2n. DNA amount (S phase) judged by propidium iodide staining. The apoptotic population is the percentage of cells with DNA content lower than 2n.
Cell proliferation and apoptosis are quantified by flow cytometer analysis after propidium-iodide (PI) DNA staining. At 24 hours post-exposure, paclitaxel and vindesine induced a dose dependent cell accumulation into G2/M cell cycle phases and a parallel decrease of the G1 population.
(§3) EC50 values were obtained by analysing G2/M accumulation dose response curve. ECMAXvalues were obtained by analysing sub-G1 accumulation dose response curve. Paclitaxel values have units of ng/ml. Vindesine values have units of nM. nd: not done.

[10] = tested on: HeL023 cells; experiment: Flow cytometry analysis of G2/M accumulation and sub-G1 apoptosis, HeL023; assay type: cell-based, human; settings: for EC50: Homo sapiens
Protocol: as §2
(§4) To verify the role of A3 receptor antagonists on paclitaxel and vindesine mediated alteration of cell proliferation and apoptosis, testing was performed with additional cell lines. […] Experimental conditions are similar to those for the A375 cell testing.
as §3

[11] = tested on: Jurkat cells; experiment: Flow cytometry analysis of G2/M accumulation and sub-G1 apoptosis, Jurkat; assay type: cell-based, human; settings: for EC50: Homo sapiens
Protocol: as §2, §4, §3

[12] = tested on: NCTC2544 cells; experiment: Flow cytometry analysis of G2/M accumulation and sub-G1 apoptosis, NCTC 2544; assay type: cell-based, human; settings: for EC50: Homo sapiens, NCTC-2544, NCTC 2544; for ECMAX (sub-G1 accumulation): NCTC 2544
Protocol: as §2, §4, §3

[13] = tested on: PBMC blasts; experiment: Flow cytometry analysis of G2/M accumulation, PBMC; assay type: cell-based; settings: Homo sapiens, vindesine with MRE3008F20 10 μM
Protocol: For multi-drug resistance testing, A375 and NCTC2544 cells are grown adherently and maintained in DMEM and EMEM medium, respectively, containing 10% fetal calf serum, penicillin (100 U/ml), streptomycin (100 μg/ml), L-glutamine (2 mM) at 37° C. in 5% CO2/95% air. HeL023 and Jurkat were grown in RPMI-1640 medium, containing 10% fetal calf serum, penicillin (100 U/ml), streptomycin (100 μg/ml), L-glutamine (2 mM) at 37° C. in 5% CO2/95% air. Cells are passaged two or three times weekly at a ratio between 1:5 and 1:10. Lymphocytes were isolated from buffy coats kindly provided by the Blood Bank of the University Hospital of Ferrara. Blood donated by healthy volunteers, after informed consent for research was obtained. Lymphocytes were isolated by density gradient centrifugation (Ficoll/Histopaque 1.077 g/ml). […]
A375 and NCTC2544 adherent cells were trypsinized, mixed with floating cells, washed with PBS and permeabilised in 70% (vol/vol) ethanol/PBS solution at 4° C. for at least 24 hours. […] Cells were analysed by FACScan (Becton-Dickinson) and the content of DNA was evaluated by the Cell-LISYS program (Becton-Dickinson). Cell distribution among cell cycle phases and apoptotic cells was evaluated as previously described (Secchiero et al., 2001). […]

[14] = A-375, read-out: IC50 of anti-neoplastic agent used jointly with A3 antagonist, A375 cells, with IL-10 0.5 μg/ml
[15] = A-375, read-out: IC50 of anti-neoplastic agent used jointly with A3 antagonist, A375 cells, with IL-10 5 μg/ml
[16] = A-375, read-out: IC50 of anti-neoplastic agent used jointly with A3 antagonist, A375 cells, with IL-10 […]
[17] = A-375, read-out: IC50 of anti-neoplastic agent used jointly with A3 antagonist, A375 cells, with IL-11 0.5 μg/ml
[18] = A-375, read-out: IC50 of anti-neoplastic agent used jointly with A3 antagonist, A375 cells, with IL-11 5 μg/ml
[19] = A-375, read-out: IC50 of anti-neoplastic agent used jointly with A3 antagonist, A375 cells, with MRE3008F20 1 μg/ml
[20] = A-375, read-out: IC50 of anti-neoplastic agent used jointly with A3 antagonist, A375 cells, with MRE3008F20 3 μg/ml
[21] = A-375, read-out: IC50 of anti-neoplastic agent used jointly with A3 antagonist, A375 cells, with MRE3008F20 10 μg/ml
[22] = paclitaxel with MRE3008F20 10 μM
[23] = vindesine with MRE3008F20 10 μM

SMILES | IC50 ([3]; with IL-10 0.5 μg/ml) [ng/mL] | IC50 ([3]; with IL-11 0.5 μg/ml) [ng/mL] | IC50 ([3]; with MRE3008F20 1 μg/ml) [ng/mL] | IC50 ([4]; with IL-10 0.5 μg/ml) [ng/mL] | IC50 ([4]; with IL-11 0.5 μg/ml) [ng/mL] | IC50 ([4]; with MRE3008F20 1 μg/ml) [ng/mL] | IC50 ([5]; with IL-10 0.5 μg/ml) [ng/mL] | IC50 ([5]; with IL-11 0.5 μg/ml) [ng/mL] | IC50 ([5]; with MRE3008F20 1 μg/ml) [ng/mL] | IC50 [6] [ng/mL] | IC50 [8, 14] [ng/mL] | IC50 [8, 15] [ng/mL] | IC50 [8, 16] [ng/mL] | IC50 [8, 17] [ng/mL] | IC50 [8, 18] [ng/mL] | IC50 [8, 19] [ng/mL] | IC50 [8, 20] [ng/mL] | IC50 [8, 21] [ng/mL] | EC50 [9] | further results
CN(C)c1ccc(NC(=O)Nc2nc3nn(C)cc3c3nc(-c4ccco4)nn23)cc1 [IL-11, N-1-(4-dimethylamino-phenyl)-N′-5-[8-methyl-2-(2-furyl)-pyrazolo[4,3-e]1,2,4-triazolo[1,5-c]pyrimidine]-urea] |  |  |  |  |  |  |  |  |  |  |  |  |  |  |  |  |  |  |  | Ki [1]: > 10000 nM; Ki [2]: > 10000 nM
CC(=O)O[C@@]12CO[C@@H]1C[C@H](O)[C@@]1(C)C(=O)[C@H](O)C3=C(C)[C@@H](OC(=O)[C@H](O)[C@@H](NC(=O)OC(C)(C)C)c4ccccc4)C[C@@](O)([C@@H](OC(=O)c4ccccc4)[C@H]21)C3(C)C [docetaxel] | 0.0033 (≈ 0.00408 nM) | 0.0028 (≈ 0.00347 nM) | 0.0012 (≈ 0.00149 nM) | 0.47 (≈ 0.582 nM) | 0.5 (≈ 0.619 nM) | 0.38 (≈ 0.47 nM) | 0.17 (≈ 0.21 nM) | 0.25 (≈ 0.309 nM) | 0.13 (≈ 0.161 nM) | 0.005 (≈ 0.00619 nM) | 0.0025 (≈ 0.00309 nM) | 0.0072 (≈ 0.00891 nM) | 0.0023 (≈ 0.00285 nM) | 0.0087 (≈ 0.0108 nM) | 0.0071 (≈ 0.00879 nM) | 0.0006 (≈ 0.000743 nM) | 0.0055 (≈ 0.00681 nM) | 0.0072 (≈ 0.00891 nM) |  | acute hypersensitivity reaction, patients [7]: 13%; severe hypersensitivity reaction, patients [7]: 1.2%
CC(=O)O[C@H]1C(=O)[C@@]2(C)[C@H]([C@H](OC(=O)c3ccccc3)[C@]3(O)C[C@H](OC(=O)[C@H](O)[C@@H](NC(=O)c4ccccc4)c4ccccc4)C(C)=C1C3(C)C)[C@]1(OC(C)=O)CO[C@@H]1C[C@@H]2O [paclitaxel] | 1 (≈ 1.17 nM) | 0.99 (≈ 1.16 nM) | 0.85 (≈ 0.995 nM) | 1.7 (≈ 1.99 nM) | 1.6 (≈ 1.87 nM) | 1.5 (≈ 1.76 nM) | 1.2 (≈ 1.41 nM) | 0.78 (≈ 0.913 nM) | 0.8 (≈ 0.937 nM) | 0.67 (≈ 0.785 nM) | 1.2 (≈ 1.41 nM) | 0.5 (≈ 0.586 nM) | 0.61 (≈ 0.714 nM) | 1.4 (≈ 1.64 nM) | 0.4 (≈ 0.468 nM) | 0.59 (≈ 0.691 nM) | 0.66 (≈ 0.773 nM) | 0.54 (≈ 0.632 nM) | 8.6 ± 0.81 ng/mL | percentage of apoptotic cells, maximum value ([9]; A375, paclitaxel at 5 ng/ml, range on different experiments): 35 to 53%; ECMAX, concentration exerting the maximal apoptosis (sub-G1) ([9]; A375, paclitaxel with MRE3008F20 10 μM): 3.04 ± 0.32 ng/mL; ECMAX, concentration exerting the maximal apoptosis (sub-G1) ([9]; A375, paclitaxel, DMSO (no antagonist)): 6.00 ± 0.63 ng/mL; EC50, G2/M accumulation ([9]; A375, paclitaxel, DMSO (no antagonist), 24 hours): 16.60 ± 2.00 ng/mL (≈ 19.4 nM); EC50 [10, 22]: 4.1 ± 0.4 ng/mL; ECMAX (sub-G1 accumulation) [10, 22]: 3.19 ± 0.30 ng/mL; EC50 [11, 22]: 2.52 ± 0.3 ng/mL; ECMAX (sub-G1 accumulation) [11, 22]: 2.29 ± 0.31 ng/mL; EC50 [12, 22]: 2.41 ± 0.3 ng/mL; ECMAX (sub-G1 accumulation) [12, 22]: 2.55 ± 0.24 ng/mL; IC50 ([8]; A-375, read-out: IC50 of paclitaxel plus MRE3008F20, IL-10, and IL-11, A375, with 10 μg/ml of MRE3008F20 or 5 μg/ml of IL-10 or IL-11): 0.4 to 0.54 ng/mL
CC[C@]1(O)C[C@@H]2CN(CCc3c([nH]c4ccccc34)[C@@](C(=O)OC)(c3cc4c(cc3OC)N(C)[C@H]3[C@@](O)(C(N)=O)[C@H](O)[C@]5(CC)C=CCN6CC[C@]43[C@@H]65)C2)C1 [vindesine] |  |  |  |  |  |  |  |  |  |  |  |  |  |  |  |  |  |  | 0.48 ± 0.05 nM | ECMAX, concentration exerting the maximal apoptosis (sub-G1) ([9]; A375, vindesine with MRE3008F20 10 μM): 1.66 ± 0.20 nM; EC50 [10, 23]: 0.71 ± 0.08 nM; ECMAX (sub-G1 accumulation) [10, 23]: 1.05 ± 0.09 nM; EC50 [11, 23]: 0.37 ± 0.04 nM; EC50 [12, 23]: 0.51 ± 0.06 nM; ECMAX (sub-G1 accumulation) [12, 23]: 1.34 ± 0.15 nM; ECMAX (sub-G1 accumulation) ([12]; vindesine, DMSO (no antagonist)): 2.50 ± 0.27 nM; EC50 [13]: 0.86 ± 0.09 nM
